According to the CheMixHub viscosity set:

Test: xn = mol fraction of the nth substance listed

COCCOCCOC + CCCOC(C)=O
viscosity [mPa·s], 101.3 kPa
Conditions	298.15 K	308.15 K	318.15 K
x1 = 0.0296	0.567	0.499	0.447
x1 = 0.076	0.586	0.515	0.46
x1 = 0.0957	0.594	0.521	0.467
x1 = 0.1388	0.611	0.534	0.478
x1 = 0.1878	0.633	0.551	0.492
x1 = 0.2478	0.656	0.572	0.508
x1 = 0.3236	0.688	0.597	0.528
x1 = 0.3893	0.716	0.619	0.544
x1 = 0.4382	0.736	0.635	0.557
x1 = 0.5153	0.769	0.662	0.579
x1 = 0.5945	0.805	0.691	0.603
x1 = 0.6605	0.835	0.715	0.626
x1 = 0.735	0.87	0.744	0.648
x1 = 0.7756	0.888	0.759	0.659
x1 = 0.8324	0.916	0.779	0.676
x1 = 0.8696	0.933	0.793	0.687
x1 = 0.9082	0.954	0.808	0.699
x1 = 0.9425	0.97	0.822	0.71
x1 = 0.9777	0.988	0.835	0.722
x2 = 0.0101	–	–	0.725
x2 = 0.0103	0.991	0.84	–

CCCCCCN + CCN(CC)CC
viscosity [mPa·s], 101.33 kPa
Conditions	x2 = 0.1014	x2 = 0.1952	x2 = 0.3807	x2 = 0.4897	x2 = 0.5912	x2 = 0.7898	x2 = 0.8946
303.15 K	0.6552	0.6088	0.5322	0.4934	0.4613	0.407	0.3827
313.15 K	0.5654	0.5278	0.4639	0.4323	0.4027	0.3627	0.3436

CCCO + CCO
101 kPa
Conditions	viscosity [mPa·s]
293.15 K, x2 = 0.5	1.564
293.15 K, x2 = 0.75	1.34
298.15 K, x2 = 0.158	1.759
298.15 K, x2 = 0.25	1.64
298.15 K, x2 = 0.303	1.64
298.15 K, x2 = 0.439	1.522
298.15 K, x2 = 0.5	1.407
298.15 K, x2 = 0.566	1.408
298.15 K, x2 = 0.684	1.319
298.15 K, x2 = 0.796	1.233
298.15 K, x2 = 0.902	1.169
303.15 K, x2 = 0.25	1.47
303.15 K, x2 = 0.5	1.26
308.15 K, x2 = 0.25	1.314
308.15 K, x2 = 0.5	1.139
308.15 K, x2 = 0.75	0.99
313.15 K, x2 = 0.25	1.183
313.15 K, x2 = 0.5	1.032
313.15 K, x2 = 0.75	0.903
318.15 K, x2 = 0.5	0.938
318.15 K, x2 = 0.75	0.824
323.15 K, x2 = 0.25	0.969
323.15 K, x2 = 0.5	0.854
323.15 K, x2 = 0.75	0.755

CO + CCO
Conditions	viscosity [mPa·s]
293.15 K, 101 kPa, x1 = 0.25	1.134
293.15 K, 101 kPa, x1 = 0.5	0.809
293.15 K, 101 kPa, x1 = 0.75	0.69
293.15 K, 101.3 kPa, x1 = 0.114	1.1
293.15 K, 101.3 kPa, x1 = 0.263	0.997
293.15 K, 101.3 kPa, x1 = 0.501	0.849
293.15 K, 101.3 kPa, x1 = 0.738	0.712
293.15 K, 101.3 kPa, x1 = 0.856	0.651
298.15 K, 101 kPa, x1 = 0.2045	0.94
298.15 K, 101 kPa, x1 = 0.25	1.032
298.15 K, 101 kPa, x1 = 0.3971	0.832
298.15 K, 101 kPa, x1 = 0.5	0.747
298.15 K, 101 kPa, x1 = 0.5962	0.729
298.15 K, 101 kPa, x1 = 0.75	0.639
298.15 K, 101 kPa, x1 = 0.7975	0.634
298.15 K, 101.33 kPa, x1 = 0.0889	1.045
298.15 K, 101.33 kPa, x1 = 0.146	1.008
298.15 K, 101.33 kPa, x1 = 0.2385	0.95
298.15 K, 101.33 kPa, x1 = 0.3311	0.896
298.15 K, 101.33 kPa, x1 = 0.4041	0.855
298.15 K, 101.33 kPa, x1 = 0.5234	0.791
298.15 K, 101.33 kPa, x1 = 0.6076	0.747
298.15 K, 101.33 kPa, x1 = 0.7136	0.694
298.15 K, 101.33 kPa, x1 = 0.8128	0.643
298.15 K, 101.33 kPa, x1 = 0.9156	0.594
303.15 K, 101 kPa, x1 = 0.25	0.939
303.15 K, 101 kPa, x1 = 0.5	0.69
303.15 K, 101 kPa, x1 = 0.75	0.594
308.15 K, 101 kPa, x1 = 0.2045	0.791
308.15 K, 101 kPa, x1 = 0.25	0.858
308.15 K, 101 kPa, x1 = 0.3971	0.706
308.15 K, 101 kPa, x1 = 0.5	0.638
308.15 K, 101 kPa, x1 = 0.5962	0.625
308.15 K, 101 kPa, x1 = 0.75	0.552
308.15 K, 101 kPa, x1 = 0.7975	0.548
313.15 K, 101 kPa, x1 = 0.25	0.784
313.15 K, 101 kPa, x1 = 0.5	0.593
313.15 K, 101 kPa, x1 = 0.75	0.515
313.15 K, 101.3 kPa, x1 = 0.114	0.77
313.15 K, 101.3 kPa, x1 = 0.263	0.709
313.15 K, 101.3 kPa, x1 = 0.501	0.615
313.15 K, 101.3 kPa, x1 = 0.738	0.531
313.15 K, 101.3 kPa, x1 = 0.856	0.491
318.15 K, 101 kPa, x1 = 0.2045	0.667
318.15 K, 101 kPa, x1 = 0.25	0.718
318.15 K, 101 kPa, x1 = 0.3971	0.599
318.15 K, 101 kPa, x1 = 0.5	0.551
318.15 K, 101 kPa, x1 = 0.5962	0.531
318.15 K, 101 kPa, x1 = 0.75	0.482
318.15 K, 101 kPa, x1 = 0.7975	0.474
323.15 K, 101 kPa, x1 = 0.25	0.661
323.15 K, 101 kPa, x1 = 0.5	0.513
323.15 K, 101 kPa, x1 = 0.75	0.452

COC(=O)OC + CCO
101.3 kPa
Conditions	viscosity [mPa·s]
293.15 K, x1 = 0.0498	1.07
293.15 K, x1 = 0.0978	0.974
293.15 K, x1 = 0.176	0.853
293.15 K, x1 = 0.2928	0.74
293.15 K, x1 = 0.4053	0.675
293.15 K, x1 = 0.4981	0.646
293.15 K, x1 = 0.5982	0.625
293.15 K, x1 = 0.6962	0.613
293.15 K, x1 = 0.8024	0.609
293.15 K, x1 = 0.8894	0.607
293.15 K, x1 = 0.9516	0.618
298.15 K, x1 = 0.0598	0.966
298.15 K, x1 = 0.095	0.897
298.15 K, x1 = 0.1692	0.786
298.15 K, x1 = 0.2725	0.685
298.15 K, x1 = 0.3854	0.625
298.15 K, x1 = 0.4778	0.594
298.15 K, x1 = 0.5686	0.573
298.15 K, x1 = 0.6777	0.561
298.15 K, x1 = 0.7915	0.555
298.15 K, x1 = 0.8775	0.556
298.15 K, x1 = 0.9366	0.565
303.15 K, x1 = 0.0673	0.832
303.15 K, x1 = 0.1142	0.752
303.15 K, x1 = 0.2249	0.627
303.15 K, x1 = 0.2894	0.588
303.15 K, x1 = 0.3906	0.541
303.15 K, x1 = 0.4848	0.521
303.15 K, x1 = 0.5996	0.512
303.15 K, x1 = 0.6931	0.513
303.15 K, x1 = 0.8038	0.512
303.15 K, x1 = 0.9072	0.52
303.15 K, x1 = 0.9462	0.527
313.15 K, x1 = 0.0504	0.731
313.15 K, x1 = 0.0934	0.662
313.15 K, x1 = 0.2082	0.535
313.15 K, x1 = 0.3087	0.472
313.15 K, x1 = 0.393	0.45
313.15 K, x1 = 0.5026	0.44
313.15 K, x1 = 0.6011	0.438
313.15 K, x1 = 0.7052	0.44
313.15 K, x1 = 0.7968	0.445
313.15 K, x1 = 0.9075	0.463
313.15 K, x1 = 0.9507	0.475

ClC(Cl)C(Cl)Cl + CCO
viscosity [mPa·s], 101.32 kPa
Conditions	x2 = 0.167	x2 = 0.3109	x2 = 0.4362	x2 = 0.5461	x2 = 0.6435	x2 = 0.7303	x2 = 0.8081	x2 = 0.8783	x2 = 0.942
303.15 K	1.369	1.324	1.257	1.21	1.166	1.12	1.095	1.047	1.026
313.15 K	1.24	1.16	1.107	1.049	1.007	0.965	0.934	0.903	0.868
323.15 K	1.121	1.068	0.961	0.91	0.869	0.819	0.795	0.787	0.732
